Experimental data reported in PubChem BioAssay AID248 (DTP/NCI, 2004).
Inconclusive results and toxic doses are left out. Cut-off read from the data, not from the text of the source: active = T/C of 150% or more; inactive = T/C below 125%.

Tested on: L1210 leukemia ip in BDF1 mice, survival T/C
Assay: NCI In Vivo Anticancer Drug Screen. Data for tumor model L1210 Leukemia (intraperitoneal) in B6D2F1 (BDF1) mice
Conditions: endpoint: mean survival time, higher = longer survival
Summary of the method: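 Transplanted-tumor mice were given test agent; controls received vehicle only. Survival readings from the two groups were divided (treated over control).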

Measured: T/C

O=C(NCCF)NC1CCSCC1
inactive: dose: 100.0 mg/kg/injection, schedule: Q01DX001 (ip), vehicle: other 112 % of control | dose: 200.0 mg/kg/injection, schedule: Q01DX001 (ip), vehicle: other 103 % of control | dose: 400.0 mg/kg/injection, schedule: Q01DX001 (ip), vehicle: other 98 % of control

COc1cc(/C=N/OCc2cc3c(cc2Cl)OCO3)cc(OC)c1OC
inactive: dose: 100.0 mg/kg/injection, schedule: Q04DX003 (ip), vehicle: saline with Tween-80 99 % of control | dose: 200.0 mg/kg/injection, schedule: Q04DX003 (ip), vehicle: saline with Tween-80 94 % of control | dose: 400.0 mg/kg/injection, schedule: Q04DX003 (ip), vehicle: saline with Tween-80 96 % of control
